Values of other authors as cited in patent publication US20080064711A1, “Composition for treating oral cavity and Mucousal infections” (J.P.M.E.D. LTD., priority 2002, published 2008).

Columns and labels:
[1] = test system: human keratinocyte and fibroblast cultures; conditions: Ponec et al. J Pharm Sci 1990
[2] = test system: Gram negative bacteria that tend to colonize the oral cavity; conditions: patients undergoing radiation therapy; Spijkervet et al., 1990

Structure (SMILES)	Cytotoxicity to human keratinocyte and fibroblast cultures [1]	Effectiveness against Gram negative bacteria colonizing the oral cavity [2]
CCO [Ethanol]	cytotoxic	
[H]/N=C(\N/C(=N/[H])NCCCCCCNC(=N)NC(=N)Nc1ccc(Cl)cc1)Nc1ccc(Cl)cc1 [chlorhexidine]		relatively ineffective
CN(C)C=O [dimethylformamide]	cytotoxic	
C[S+](C)[O-] [dimethylsulfoxide]	cytotoxic	
CC(O)CO (centres unmarked) [propylene glycol]	cytotoxic	
